According to US20110224147A1, “METHODS AND COMPOSITIONS” (Relevare Aust. Pyt. Ltd., priority 2008, published 2011):
Marks after values point to notes of the source that are not given here.

How the values were obtained:
normal rats = experiment: Open field activity monitor (sedation), normal rats
Method: (§1) All experiments were performed on male Wistar rats, weight 170-220 g for experiments investigating sedation and antinociception using the carrageenan inflammation paradigm and weight 120-200 g for experiments evaluating sedation and antinociception using the diabetic neuropathy model. The experiments were performed in an observer-blinded fashion with parallel positive placebo (gabapentin) and negative placebo (vehicle) treatment controls. All drug solutions and vehicle were given intraperitoneally (ip) in a volume of 1.0 ml.
(§2) Measurement of the movements of a freely moving rat in an open field activity monitor was used. […] The maximum non-sedating doses of each compound alone and in combination were first determined in normal rats and then those doses were tested for sedation in diabetic rats. This was done to be sure that there was no sedation caused by the drugs, particularly in diabetics that are known to be more susceptible to CNS depressants.
(§3) The open field activity monitor (MedAssociates Inc. St. Albans, Vt. 05478, USA) is an enclosure with a quiet and darkened environment. It contains 16 intersecting beams of infrared light. Interruptions of beams by individual rats moving around the enclosure were recorded by computer. These measurements were converted to the total rest time in seconds during a 20 min period in the apparatus. Rest times of drug-treated rats were compared with vehicle-treated controls using ANOVA with Dunnet post hoc test.
(§4) Animals naïve to drug treatment were acclimatized to the lab environment and individual rats were selected randomly from a group one at a time. They were injected (ip) with vehicle, a test drug dose or a combination of drugs in an operator-blinded fashion. Five minutes after the ip injection each rat was placed in the open field activity monitor for a 20-min period.
(§5) Groups of rats were tested with the open field activity monitor as above with the following ip treatments: • vehicle controls, n=121 experiments • CNSB002 at doses 10 and 20 mg/kg, n=20 and 10 experiments • morphine at doses 6.4 and 3.2 mg/kg, n=21 and 20 experiments • a combination of CNSB002 at 10 mg/kg with morphine at 3.2 mg/kg, n=21 experiments • a combination of CNSB002 at 5.0 mg/kg with morphine at 3.2 mg/kg, n=19 experiments • gabapentin at doses of 100 and 50 mg/kg, n=26 each experiments • a combination of GABApentin at 50 mg/kg with morphine at 3.2 mg/kg, n=19 experiments

diabetic rats = experiment: Open field activity monitor (sedation), diabetic rats
Method: as §1, §2, §3, §4, §5
Rats were injected ip with streptozotocin (STZ; […] total dose) dissolved in 0.9% w/v sodium chloride solution. The 150 mg dose was given in two 75 mg/kg injections on consecutive days. Diabetes was confirmed one week after injection of STZ by measurement of tail vein blood glucose levels with AccuCheck Active test strips and a reflectance colorimeter (AccuCheck Glucometer, Roche). Only animals with final blood glucose levels ≧15 mM were deemed to be diabetic. The rats were retested for hyperglycaemia once per week to confirm continued high blood glucose readings. Hyperalgesia was assessed by measurement of paw flick latency using the radiant heat plantar test described previously by Hargreaves et al, 1988 supra.

[1] = test system: carrageenan-induced hyperalgesia; experiment: Carrageenan paw inflammation test (paw withdrawal latency, noxious heat); assay type: in vivo, rat; conditions: for antinociception, significance vs vehicle controls: p>0.05
Method: as §1
Two tests for antinociception were used: the carrageenan paw inflammation test; and the streptozotocin-induced diabetic neuropathy model. Inflammation of the right hind paw was induced by an intraplantar injection of carrageenan (100 μl of a 2% w/v carrageenan solution in saline). Time was allowed for paw inflammation to develop (2 hours). Paw withdrawal latencies were measured using noxious heat from an infrared beam focused onto the plantar surface of the right hind paw in unrestrained animals using apparatus from Ugo Basile (via G. Borghi 43, 21025 Comerio VA—Italy). The method used was originally described by Hargreaves et al, Pain 32:77-88, 1988.
Paw withdrawal latencies were measured at 10 min intervals before the induction of inflammation with carrageenan injection until 3 stable baseline readings were obtained (baseline readings—see FIG. 1). […] A test drug or drug combination was injected intraperitoneally and paw withdrawal values were measured at 10-minute intervals for the following 30 minutes (test drug readings—see FIG. 1).
The following drug treatments were given ip to separate groups of rats: • vehicle controls, n=63 • CNSB002 at dose range 0.5 mg/kg to 10 mg/kg alone, n=14 each • morphine at dose range 0.2 mg/kg to 3.2 mg/kg alone, n=10 each • combinations of CNSB002 at 5 mg/kg with morphine at 0.2, 0.4, 0.8, 1.6 and 3.2 mg/kg, n=10 each • gabapentin alone at 50 mg/kg, n=20 • combination of gabapentin at 50 mg/kg with morphine 3.2 mg/kg, n=20
Drug and placebo/vehicle treatments were compared statistically using ANOVA with Tukey-Kramer post hoc test.

[2] = test system: hyperalgesia caused by STZ-induced diabetic neuropathy; experiment: Streptozotocin-induced diabetic neuropathy model (paw flick latency, radiant heat plantar test); assay type: in vivo, rat; conditions: diabetic rats
[3] = male, Wistar, rat, in vivo, ip, 10 mg/kg, 20 min
[4] = CNSB002 10 mg/kg ip alone, p<0.01
[5] = gabapentin 50 mg/kg ip alone, p<0.01
[6] = morphine 3.2 mg/kg ip alone, p<0.05

Structure (SMILES): CC(C)(C)c1cc(CN2CCN(CC(O)c3ccc(Cl)cc3)CC2)cc(C(C)(C)C)c1O (stereo not shown) [CNSB002, 1-(2-(4-chlorophenyl)-2-hydroxy)ethyl-4-(3,5-bis(1,1-dimethyl)-4-hydroxyphenyl)methylpiperazine]
- total rest time during a 20 min period (mean) (normal rats; [3]): 851.2 s
- total rest time during a 20 min period (mean) (normal rats; male, Wistar, rat, in vivo, ip, 20 mg/kg, 20 min): 1001.2* seconds
- sedation vs vehicle controls (normal rats; rat, in vivo, ip, 10 mg/kg): did not cause sedation
- sedation vs vehicle controls (normal rats; rat, in vivo, ip, 20 mg/kg): sedating
- total rest time during a 20 min period (mean) (diabetic rats; [3]): 1005.6 s
- sedation vs vehicle controls (diabetic rats; rat, in vivo, ip, 10 mg/kg): not sedating
- reversal of carrageenan-induced hyperalgesia ([1]; CNSB002 5 mg/kg ip alone): 35%
- reversal of carrageenan-induced hyperalgesia ([1]; CNSB002 10 mg/kg ip alone): 35%
- antinociception, significance vs vehicle controls ([1]; CNSB002 0.5-10 mg/kg ip alone): No dose of gabapentin or CNSB002 administered alone caused statistically-significant antinociception
- antinociception compared with CNSB002 at 0.5 mg/kg ([1]; CNSB002 5 or 10 mg/kg ip alone): significantly greater
- antinociception compared with CNSB002 at 0.5, 1.0 and 2.5 mg/kg ([2]; CNSB002 10 mg/kg ip alone, not vs 5 mg/kg): significantly greater
- antinociception, significance vs vehicle controls [2, 4]: significant antinociceptive effect
- reversal of hyperalgesia [2, 4]: 26%
- antinociception, significance vs vehicle controls ([2]; CNSB002 doses other than 10 mg/kg (0.5-5 mg/kg) ip alone): No other doses of CNSB002 administered alone caused significant antinociception

Structure (SMILES): NCC1(CC(=O)O)CCCCC1 [gabapentin]
- total rest time during a 20 min period (mean) (normal rats; normal rats, gabapentin 50 mg/kg ip alone, Table 1C): 753.0 s
- sedation vs vehicle controls (normal rats; normal rats, gabapentin 50 mg/kg ip alone, p>0.05): did not cause sedation
- total rest time during a 20 min period (mean) (normal rats; normal rats, gabapentin 100 mg/kg ip alone, Table 1C): 881.6* seconds
- sedation vs vehicle controls (normal rats; normal rats, gabapentin 100 mg/kg ip alone, p<0.01): caused significant sedation
- total rest time during a 20 min period (mean) (diabetic rats; diabetic rats, gabapentin 50 mg/kg ip alone, Table 2A): 985.8 s
- sedation vs vehicle controls (diabetic rats; diabetic rats, gabapentin 50 mg/kg ip alone, p>0.05): not sedating
- total rest time during a 20 min period (mean) (diabetic rats; diabetic rats, gabapentin 100 mg/kg ip alone, Table 2A): 941.2 s
- sedation vs vehicle controls (diabetic rats; diabetic rats, gabapentin 100 mg/kg ip alone, p>0.05): not sedating
- antinociception, significance vs vehicle controls ([1]; gabapentin 50 mg/kg ip alone): No dose of gabapentin or CNSB002 administered alone caused statistically-significant antinociception
- antinociception, significance vs vehicle controls [2, 5]: equally significant antinociception
- reversal of hyperalgesia [2, 5]: 26%

Structure (SMILES): CN1CC[C@]23c4c5ccc(O)c4O[C@H]2[C@@H](O)C=C[C@H]3[C@H]1C5 [morphine]
- sedation vs vehicle controls (normal rats; normal rats, doses of morphine up to 6.4 mg/kg ip): sedation was not caused
- total rest time during a 20 min period (mean) (normal rats; normal rats, morphine 3.2 mg/kg ip alone, Table 1B): 961.0 s
- sedation vs vehicle controls (normal rats; normal rats, morphine 3.2 mg/kg ip alone, p>0.05 unpaired t test): did not cause sedation
- total rest time during a 20 min period (mean) (diabetic rats; diabetic rats, morphine 3.2 mg/kg ip alone, Table 2A): 943.6 s
- sedation vs vehicle controls (diabetic rats; diabetic rats, morphine 3.2 mg/kg ip alone, p>0.05): not sedating
- total rest time during a 20 min period (mean) (diabetic rats; diabetic rats, morphine 6.4 mg/kg ip alone, Table 2B): 972.6* seconds
- sedation vs vehicle controls (diabetic rats; diabetic rats, morphine 6.4 mg/kg ip alone, p<0.01): caused sedation
- reversal of carrageenan-induced hyperalgesia ([1]; morphine 3.2 mg/kg ip alone): 24%
- antinociception, significance vs vehicle controls ([1]; morphine 0.2-3.2 mg/kg ip alone): caused no significant antinociception
- antinociception, significance vs vehicle controls [2, 6]: significant antinociceptive effect
- reversal of hyperalgesia [2, 6]: 30%
- antinociception, significance vs vehicle controls ([2]; morphine alone ip, doses below the highest dose 3.2 mg/kg, p>0.05): No dose of morphine alone caused significant antinociception
